In patent publication US7666890B2, “Synthesis and herbicidal activity of 1- (2-substituted benzo[d]thiazol-5-yl)-1H-1,2,4-triazol-5(4H)-one derivatives” (Huazhong Normal University, priority 2007, dated 2010):
Each block holds one molecule with its values, some of them ahead of it.

Key:
Brassica juncea = experiment: Test of herbicidal activities (greenhouse pot method); assay type: in vivo; conditions: single dose 300 g ai./h, treated before/after germination, 15 days later, greenhouse pot; for inhibition at 300 g/ha: Brassica juncea, 360 h, read-out: Herbicidal activity Brassica juncea (inhibition level)
How it was run: (§1)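 Weeds were sown in soil-filled pots at 15–30 °C and treated once by spray tower at 300 g ai./h, either before emergence or post-emergence at the 2-leaf stage, in three replicates with an untreated control. Symptoms were scored 15 days later into five classes from A (≥90%) to E (<50%).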

Setaria viridis = experiment: as above; assay type: in vivo; conditions: single dose 300 g ai./h, treated before/after germination, 15 days later, greenhouse pot; for inhibition at 300 g/ha: Setaria viridis, 360 h, read-out: Herbicidal activity Setaria viridis (inhibition level)
How it was run: as §1

Digiatria sanguinalis = experiment: as above; assay type: in vivo; conditions: single dose 300 g ai./h, treated before/after germination, 15 days later, greenhouse pot; for inhibition at 300 g/ha: 360 h, read-out: Herbicidal activity Digiatria sanguinalis (inhibition level)
How it was run: as §1

Amaranthus retroflexus = experiment: as above; assay type: in vivo; conditions: single dose 300 g ai./h, treated before/after germination, 15 days later, greenhouse pot; for inhibition at 300 g/ha: Amaranthus retroflexus, 360 h, read-out: Herbicidal activity Amaranthus retroflexus (inhibition level)
How it was run: as §1

Chenopodium album = experiment: as above; assay type: in vivo; conditions: single dose 300 g ai./h, treated before/after germination, 15 days later, greenhouse pot; for inhibition at 300 g/ha: Chenopodium album, 360 h, read-out: Herbicidal activity Chenopodium album (inhibition level)
How it was run: as §1

Echinochloa crusgalli = experiment: as above; assay type: in vivo; conditions: single dose 300 g ai./h, treated before/after germination, 15 days later, greenhouse pot; for inhibition at 300 g/ha: Echinochloa crus-galli, 360 h, read-out: Herbicidal activity Echinochloa crusgalli (inhibition level)
How it was run: as §1

melting point: 199 to 201 °C
SMILES: Cc1nn(-c2cc3nc([S+](C)[O-])sc3cc2F)c(=O)n1C (stereo not drawn) [Compound 102, 1-(6-fluoro-2-(methylsulfinyl)benzo[d]thiazol-5-yl)-3,4-dimethyl-1H-1,2,4-triazol-5(4H)-one]
inhibition at 300 g/ha (Brassica juncea): 60 to 80%
inhibition at 300 g/ha (Setaria viridis): 60 to 80%
inhibition at 300 g/ha (Digiatria sanguinalis): 50 to 60%
inhibition at 300 g/ha (Amaranthus retroflexus): 80 to 90%
inhibition at 300 g/ha (Chenopodium album): 90 to 100%
inhibition at 300 g/ha (Echinochloa crusgalli): < 50%

melting point: 196 to 198 °C
SMILES: Cc1nn(-c2cc3nc(S(=O)(=O)Cc4ccccc4Cl)sc3cc2Cl)c(=O)n1C(F)F [Compound 39, 1-(2-(2-chlorobenzylsulfonyl)-6-chlorobenzo[d]thiazol-5-yl)-4-(difluoromethyl)-3-methyl-1H-1,2,4-triazol-5(4H)-one]
inhibition at 300 g/ha (Brassica juncea): 80 to 90%
inhibition at 300 g/ha (Setaria viridis): 60 to 80%
inhibition at 300 g/ha (Digiatria sanguinalis): 60 to 80%
inhibition at 300 g/ha (Amaranthus retroflexus): 80 to 90%
inhibition at 300 g/ha (Chenopodium album): 60 to 80%
inhibition at 300 g/ha (Echinochloa crusgalli): < 50%

melting point: 162 to 164 °C
SMILES: Cc1nn(-c2cc3nc([S+]([O-])Cc4ccccc4)sc3cc2F)c(=O)n1C (stereo not drawn) [Compound 101, 1-(2-(benzylsulfinyl)-6-fluorobenzo[d]thiazol-5-yl)-3,4-dimethyl-1H-1,2,4-triazol-5(4H)-one]
inhibition at 300 g/ha (Brassica juncea): 50 to 60%
inhibition at 300 g/ha (Setaria viridis): 60 to 80%
inhibition at 300 g/ha (Digiatria sanguinalis): 60 to 80%
inhibition at 300 g/ha (Amaranthus retroflexus): 60 to 80%
inhibition at 300 g/ha (Chenopodium album): 80 to 90%
inhibition at 300 g/ha (Echinochloa crusgalli): 80 to 90%

SMILES: Cc1nn(-c2cc3nc(SCc4ccc(Br)cc4)sc3cc2Br)c(=O)n1C(F)F [Compound 26]
Herbicidal activity Brassica juncea (inhibition level) (Brassica juncea): B (80 ≦ B < 90%)
Herbicidal activity Setaria viridis (inhibition level) (Setaria viridis): C (60 ≦ C < 80%)
Herbicidal activity Digiatria sanguinalis (inhibition level) (Digiatria sanguinalis): C (60 ≦ C < 80%)
Herbicidal activity Amaranthus retroflexus (inhibition level) (Amaranthus retroflexus): B (80 ≦ B < 90%)
Herbicidal activity Chenopodium album (inhibition level) (Chenopodium album): A (90 ≦ A ≦ 100%)
Herbicidal activity Echinochloa crusgalli (inhibition level) (Echinochloa crusgalli): D (50 ≦ D < 60%)

SMILES: Cc1ccccc1CS(=O)(=O)c1nc2cc(-n3nc(C)n(C(F)F)c3=O)c(F)cc2s1 [Compound 43]
Herbicidal activity Brassica juncea (inhibition level) (Brassica juncea): C (60 ≦ C < 80%)
Herbicidal activity Setaria viridis (inhibition level) (Setaria viridis): C (60 ≦ C < 80%)
Herbicidal activity Digiatria sanguinalis (inhibition level) (Digiatria sanguinalis): D (50 ≦ D < 60%)
Herbicidal activity Amaranthus retroflexus (inhibition level) (Amaranthus retroflexus): A (90 ≦ A ≦ 100%)
Herbicidal activity Chenopodium album (inhibition level) (Chenopodium album): C (60 ≦ C < 80%)
Herbicidal activity Echinochloa crusgalli (inhibition level) (Echinochloa crusgalli): D (50 ≦ D < 60%)

SMILES: Cc1nn(-c2cc3nc(SCc4ccc(Cl)nc4)sc3cc2Cl)c(=O)n1C(F)F [Compound 1]
Herbicidal activity Brassica juncea (inhibition level) (Brassica juncea): B (80 ≦ B < 90%)
Herbicidal activity Setaria viridis (inhibition level) (Setaria viridis): D (50 ≦ D < 60%)
Herbicidal activity Digiatria sanguinalis (inhibition level) (Digiatria sanguinalis): B (80 ≦ B < 90%)
Herbicidal activity Amaranthus retroflexus (inhibition level) (Amaranthus retroflexus): A (90 ≦ A ≦ 100%)
Herbicidal activity Chenopodium album (inhibition level) (Chenopodium album): C (60 ≦ C < 80%)
Herbicidal activity Echinochloa crusgalli (inhibition level) (Echinochloa crusgalli): B (80 ≦ B < 90%)

SMILES: CCCCCC[S+]([O-])c1nc2cc(-n3nc(C)n(C(F)F)c3=O)c(Cl)cc2s1 (stereo not drawn) [Compound 114]
Herbicidal activity Brassica juncea (inhibition level) (Brassica juncea): A (90 ≦ A ≦ 100%)
Herbicidal activity Setaria viridis (inhibition level) (Setaria viridis): B (80 ≦ B < 90%)
Herbicidal activity Digiatria sanguinalis (inhibition level) (Digiatria sanguinalis): A (90 ≦ A ≦ 100%)
Herbicidal activity Amaranthus retroflexus (inhibition level) (Amaranthus retroflexus): A (90 ≦ A ≦ 100%)
Herbicidal activity Chenopodium album (inhibition level) (Chenopodium album): A (90 ≦ A ≦ 100%)
Herbicidal activity Echinochloa crusgalli (inhibition level) (Echinochloa crusgalli): B (80 ≦ B < 90%)

SMILES: CCCCSc1nc2cc(-n3nc(C)n(C(F)F)c3=O)c(F)cc2s1 [Compound 91]
Herbicidal activity Brassica juncea (inhibition level) (Brassica juncea): A (90 ≦ A ≦ 100%)
Herbicidal activity Setaria viridis (inhibition level) (Setaria viridis): A (90 ≦ A ≦ 100%)
Herbicidal activity Digiatria sanguinalis (inhibition level) (Digiatria sanguinalis): A (90 ≦ A ≦ 100%)
Herbicidal activity Amaranthus retroflexus (inhibition level) (Amaranthus retroflexus): A (90 ≦ A ≦ 100%)
Herbicidal activity Chenopodium album (inhibition level) (Chenopodium album): C (60 ≦ C < 80%)
Herbicidal activity Echinochloa crusgalli (inhibition level) (Echinochloa crusgalli): A (90 ≦ A ≦ 100%)

SMILES: CCOC(=O)CS(=O)(=O)c1nc2cc(-n3nc(C)n(C(F)F)c3=O)c(Cl)cc2s1 [Compound 70]
Herbicidal activity Brassica juncea (inhibition level) (Brassica juncea): B (80 ≦ B < 90%)
Herbicidal activity Setaria viridis (inhibition level) (Setaria viridis): B (80 ≦ B < 90%)
Herbicidal activity Digiatria sanguinalis (inhibition level) (Digiatria sanguinalis): B (80 ≦ B < 90%)
Herbicidal activity Amaranthus retroflexus (inhibition level) (Amaranthus retroflexus): B (80 ≦ B < 90%)
Herbicidal activity Chenopodium album (inhibition level) (Chenopodium album): B (80 ≦ B < 90%)
Herbicidal activity Echinochloa crusgalli (inhibition level) (Echinochloa crusgalli): B (80 ≦ B < 90%)

SMILES: Cc1nn(-c2cc3nc(SCc4ccc(Br)cc4)sc3cc2Cl)c(=O)n1C(F)F [Compound 6]
Herbicidal activity Brassica juncea (inhibition level) (Brassica juncea): C (60 ≦ C < 80%)
Herbicidal activity Setaria viridis (inhibition level) (Setaria viridis): C (60 ≦ C < 80%)
Herbicidal activity Digiatria sanguinalis (inhibition level) (Digiatria sanguinalis): E (E < 50%)
Herbicidal activity Amaranthus retroflexus (inhibition level) (Amaranthus retroflexus): B (80 ≦ B < 90%)
Herbicidal activity Chenopodium album (inhibition level) (Chenopodium album): B (80 ≦ B < 90%)
Herbicidal activity Echinochloa crusgalli (inhibition level) (Echinochloa crusgalli): B (80 ≦ B < 90%)

SMILES: CSc1nc2cc(-n3nc(C(F)(F)F)n(C(F)F)c3=O)c(Cl)cc2s1 [Compound 125]
Herbicidal activity Brassica juncea (inhibition level) (Brassica juncea): C (60 ≦ C < 80%)
Herbicidal activity Setaria viridis (inhibition level) (Setaria viridis): C (60 ≦ C < 80%)
Herbicidal activity Digiatria sanguinalis (inhibition level) (Digiatria sanguinalis): B (80 ≦ B < 90%)
Herbicidal activity Amaranthus retroflexus (inhibition level) (Amaranthus retroflexus): A (90 ≦ A ≦ 100%)
Herbicidal activity Chenopodium album (inhibition level) (Chenopodium album): B (80 ≦ B < 90%)
Herbicidal activity Echinochloa crusgalli (inhibition level) (Echinochloa crusgalli): B (80 ≦ B < 90%)

SMILES: CCCS(=O)(=O)c1nc2cc(-n3nc(C)n(C(F)F)c3=O)c(Cl)cc2s1 [Compound 72]
Herbicidal activity Brassica juncea (inhibition level) (Brassica juncea): B (80 ≦ B < 90%)
Herbicidal activity Setaria viridis (inhibition level) (Setaria viridis): C (60 ≦ C < 80%)
Herbicidal activity Digiatria sanguinalis (inhibition level) (Digiatria sanguinalis): B (80 ≦ B < 90%)
Herbicidal activity Amaranthus retroflexus (inhibition level) (Amaranthus retroflexus): A (90 ≦ A ≦ 100%)
Herbicidal activity Chenopodium album (inhibition level) (Chenopodium album): B (80 ≦ B < 90%)
Herbicidal activity Echinochloa crusgalli (inhibition level) (Echinochloa crusgalli): A (90 ≦ A ≦ 100%)

SMILES: Cc1ccc(CSc2nc3cc(-n4nc(C)n(C(F)F)c4=O)c(F)cc3s2)cc1 [Compound 15]
Herbicidal activity Brassica juncea (inhibition level) (Brassica juncea): A (90 ≦ A ≦ 100%)
Herbicidal activity Setaria viridis (inhibition level) (Setaria viridis): B (80 ≦ B < 90%)
Herbicidal activity Digiatria sanguinalis (inhibition level) (Digiatria sanguinalis): C (60 ≦ C < 80%)
Herbicidal activity Amaranthus retroflexus (inhibition level) (Amaranthus retroflexus): A (90 ≦ A ≦ 100%)
Herbicidal activity Chenopodium album (inhibition level) (Chenopodium album): B (80 ≦ B < 90%)
Herbicidal activity Echinochloa crusgalli (inhibition level) (Echinochloa crusgalli): B (80 ≦ B < 90%)

SMILES: Cc1ccc([N+](=O)[O-])c(CS(=O)(=O)c2nc3cc(-n4nc(C)n(C(F)F)c4=O)c(F)cc3s2)c1 [Compound 46]
Herbicidal activity Brassica juncea (inhibition level) (Brassica juncea): E (E < 50%)
Herbicidal activity Setaria viridis (inhibition level) (Setaria viridis): B (80 ≦ B < 90%)
Herbicidal activity Digiatria sanguinalis (inhibition level) (Digiatria sanguinalis): B (80 ≦ B < 90%)
Herbicidal activity Amaranthus retroflexus (inhibition level) (Amaranthus retroflexus): A (90 ≦ A ≦ 100%)
Herbicidal activity Chenopodium album (inhibition level) (Chenopodium album): C (60 ≦ C < 80%)
Herbicidal activity Echinochloa crusgalli (inhibition level) (Echinochloa crusgalli): D (50 ≦ D < 60%)
